Assay results taken from US20110263662A1, “1,2-DIAMIDO-ETHYLENE DERIVATIVES AS OREXIN ANTAGONISTS” (priority 2007, published 2011).

What was measured:
[1] = molecular target: T1, human orexin-2 receptor (Homo sapiens, UniProt O43614); assay: FLIPR intracellular calcium assay, orexin receptor antagonistic activity (OX2); type: cell-based; details: CHO cells expressing human orexin-2 receptor, 3 nM orexin-A
T1 construct: expressed in transfected cells; host or cells: CHO (Chinese hamster ovary) cells, grown under G418 selection
T1 sequence (O43614 1-444): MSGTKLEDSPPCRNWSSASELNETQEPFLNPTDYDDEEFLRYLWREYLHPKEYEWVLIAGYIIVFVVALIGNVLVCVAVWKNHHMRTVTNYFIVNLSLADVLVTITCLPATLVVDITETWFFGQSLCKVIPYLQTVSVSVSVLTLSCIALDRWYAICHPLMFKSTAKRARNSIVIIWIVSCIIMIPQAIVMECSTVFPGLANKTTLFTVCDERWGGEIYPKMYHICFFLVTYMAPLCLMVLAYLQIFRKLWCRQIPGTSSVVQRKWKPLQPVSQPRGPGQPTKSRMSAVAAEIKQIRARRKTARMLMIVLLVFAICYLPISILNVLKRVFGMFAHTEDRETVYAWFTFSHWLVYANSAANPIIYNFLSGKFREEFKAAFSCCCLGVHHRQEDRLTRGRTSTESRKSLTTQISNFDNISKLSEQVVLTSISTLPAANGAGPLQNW
Protocol: (§1) Chinese hamster ovary (CHO) cells expressing the human orexin-1 receptor and the human orexin-2 receptor, respectively, are grown in culture medium (Ham F-12 with L-Glutamine) containing 300 μg/ml G418, 100 U/ml penicillin, 100 μg/ml streptomycin and 10% heat inactivated fetal calf serum (FCS). The cells are seeded at 20′000 cells/well into 384-well black clear bottom sterile plates (Greiner). The seeded plates are incubated overnight at 37° C. in 5% CO2.
(§2) Human orexin-A as an agonist is prepared as 1 mM stock solution in MeOH:water (1:1), diluted in HBSS containing 0.1% bovine serum albumin (BSA), NaHCO3:0.375 g/l and 20 mM HEPES for use in the assay at a final concentration of 3 nM.
(§3) Antagonists are prepared as 10 mM stock solution in DMSO, then diluted in 384-well plates, first in DMSO, then in HBSS containing 0.1% bovine serum albumin (BSA), NaHCO3: 0.375 g/l and 20 mM HEPES.
(§4) On the day of the assay, 50 μl of staining buffer (HBSS containing 1% FCS, 20 mM HEPES, NaHCO3: 0.375 g/l, 5 mM probenecid (Sigma) and 3 μM of the fluorescent calcium indicator fluo-4 AM (1 mM stock solution in DMSO, containing 10% pluronic) is added to each well.
(§5) The 384-well cell-plates are incubated for 50 min at 37° C. in 5% CO2 followed by equilibration at RT for 30-120 min before measurement.
(§6) Within the Fluorescent Imaging Plate Reader (FLIPR2 or FLIPR Tetra, Molecular Devices), antagonists are added to the plate in a volume of 10 μl/well, incubated for 10 min and finally 10 μl/well of agonist is added. Fluorescence is measured for each well at 1 second intervals, and the height of each fluorescence peak is compared to the height of the fluorescence peak induced by 3 nM orexin-A with vehicle in place of antagonist. For each antagonist, the IC50 value (the concentration of compound needed to inhibit 50% of the agonistic response) is determined. Optimized conditions may be achieved by adjustment of pipetting speed and cell splitting regime. The calculated IC50 values of the compounds may fluctuate depending on the daily cellular assay performance. Fluctuations of this kind are known to those skilled in the art.

[2] = molecular target: T2, human orexin-1 receptor (Homo sapiens, UniProt O43613); assay: FLIPR intracellular calcium assay, orexin receptor antagonistic activity (OX1); type: cell-based; details: CHO cells expressing human orexin-1 receptor, 3 nM orexin-A
T2 construct: expressed in transfected cells; host or cells: CHO (Chinese hamster ovary) cells, grown under G418 selection
T2 sequence (O43613 1-425): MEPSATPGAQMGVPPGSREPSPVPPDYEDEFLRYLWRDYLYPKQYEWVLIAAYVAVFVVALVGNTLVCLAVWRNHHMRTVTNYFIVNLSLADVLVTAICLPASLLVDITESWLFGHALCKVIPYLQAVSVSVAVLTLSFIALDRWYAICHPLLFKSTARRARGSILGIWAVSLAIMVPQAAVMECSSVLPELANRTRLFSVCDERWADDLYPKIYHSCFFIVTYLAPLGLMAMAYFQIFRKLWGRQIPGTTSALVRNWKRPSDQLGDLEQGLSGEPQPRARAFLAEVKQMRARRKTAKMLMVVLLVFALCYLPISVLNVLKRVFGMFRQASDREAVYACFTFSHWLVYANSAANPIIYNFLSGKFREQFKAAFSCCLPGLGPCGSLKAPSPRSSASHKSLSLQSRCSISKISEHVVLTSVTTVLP
Protocol: as §1, §2, §3, §4, §5, §6

[3] = measured with FLIPR Tetra (marked *)
[4] = FLIPR 2, geometric mean from n = 2 values

Row | Compound | IC50 ([1]; measured with FLIPR 2) | IC50 ([2]; measured with FLIPR 2) | IC50 [1, 3] | IC50 [2, 3] | other results
1 | Cc1nc(C(=O)NC(CNC(=O)c2cccc3occc23)CC(C)C)c(-c2ccccc2)s1 (racemic) [Example 83, 2-Methyl-5-phenyl-thiazole-4-carboxylic acid ((RS)-1-{[(benzofuran-4-carbonyl)-amino]-methyl}-3-methyl-butyl)-amide] | 0.303 µM | 0.437 µM |  |  | 
2 | Cc1nc(C(=O)N(CCNC(=O)c2cccc3occc23)Cc2ccccc2)c(-c2ccc(F)cc2)s1 [Example 2, 5-(4-Fluoro-phenyl)-2-methyl-thiazole-4-carboxylic acid {2-[(benzofuran-4-carbonyl)-amino]-ethyl}-benzyl-amide] |  |  |  |  | IC50 [1, 4]: 0.035 µM; IC50 [2, 4]: 0.242 µM
3 | COc1cccc(-c2sc(C)nc2C(=O)N(CCNC(=O)c2cccc3c2OCCO3)CC2CC2)c1 [Example 248, 5-(3-Methoxy-phenyl)-2-methyl-thiazole-4-carboxylic acid cyclopropylmethyl-{2-[(2,3-dihydro-benzo[1,4]dioxine-5-carbonyl)-amino]-ethyl}-amide] |  |  | 0.029 µM | 0.434 µM | 
4 | Cc1nc(C(=O)N(CCNC(=O)c2cccc3c2OCCO3)CC(C)C)c(-c2ccccc2)s1 [Example 31, 2-Methyl-5-phenyl-thiazole-4-carboxylic acid {2-[(2,3-dihydro-benzo[1,4]dioxine-5-carbonyl)-amino]-ethyl}-isobutyl-amide] | 0.085 µM | 0.504 µM |  |  | 
5 | Cc1nc(C(=O)N(CCNC(=O)c2cccc3c2OCCO3)Cc2ccc(C(F)(F)F)cc2)c(-c2ccccc2)s1 [Example 25, 2-Methyl-5-phenyl-thiazole-4-carboxylic acid {2-[(2,3-dihydro-benzo[1,4]dioxine-5-carbonyl)-amino]-ethyl}-(4-trifluoromethyl-benzyl)-amide] | 0.012 µM | 0.075 µM |  |  | 
6 | Cc1nc(C(=O)N(CCNC(=O)c2cccc3occc23)C2CC2)c(-c2ccc(C)c(C)c2)s1 [Example 165, 5-(3,4-Dimethyl-phenyl)-2-methyl-thiazole-4-carboxylic acid {2-[(benzofuran-4-carbonyl)-amino]-ethyl}-cyclopropyl-amide] |  |  | 0.0043 µM | 0.002 µM | 
7 | Cc1nc(C(=O)N(C)CCNC(=O)c2cccc3occc23)c(-c2ccc(F)cc2)s1 [Example 3, 5-(4-Fluoro-phenyl)-2-methyl-thiazole-4-carboxylic acid {2-[(benzofuran-4-carbonyl)-amino]-ethyl}-methyl-amide] |  |  |  |  | IC50 [1, 4]: 0.027 µM; IC50 [2, 4]: 0.15 µM
8 | Cc1nc(C(=O)N(CCNC(=O)c2c(C)nc3sccn23)Cc2ccc(F)cc2)c(-c2ccccc2)s1 [Example 18, 6-Methyl-imidazo[2,1-b]thiazole-5-carboxylic acid {2-[(4-fluoro-benzyl)-(2-methyl-5-phenyl-thiazole-4-carbonyl)-amino]-ethyl}-amide] | 0.011 µM | 0.0078 µM |  |  | 
9 | Cc1cccc(-c2ccccc2C(=O)N(CCNC(=O)c2nn(C)c3ccccc23)C2CC2)c1 [Example 144, 1-Methyl-1H-indazole-3-carboxylic acid {2-[cyclopropyl-(3′-methyl-biphenyl-2-carbonyl)-amino]-ethyl}-amide] |  |  | 0.02 µM | 0.095 µM | 
10 | Nc1nc(C(=O)N(CCNC(=O)c2cccc3occc23)CC2CC2)c(-c2cccc(Cl)c2)s1 [Example 262, 2-Amino-5-(3-chloro-phenyl)-thiazole-4-carboxylic acid {2-[(benzofuran-4-carbonyl)-amino]-ethyl}-cyclopropylmethyl-amide] |  |  | 0.017 µM | 0.144 µM | 

More lines, main results first:

Row | IC50 ([1]; measured with FLIPR 2) | IC50 ([2]; measured with FLIPR 2) | IC50 [1, 3] | IC50 [2, 3] | Compound | other results
11 | 0.046 µM | 0.084 µM |  |  | Cc1nc2sccn2c1C(=O)NCC(CC(C)C)NC(=O)c1ccccc1-c1ccccc1 (racemic) [Example 88, 6-Methyl-imidazo[2,1-b]thiazole-5-carboxylic acid {(RS)-2-[(biphenyl-2-carbonyl)-amino]-4-methyl-pentyl}-amide] | 
12 | 0.05 µM | 0.112 µM |  |  | Cc1nc(C(=O)N(C)C(CNC(=O)c2c(C)nc3sccn23)C2CC2)c(-c2ccccc2)s1 (racemic) [Example 47, 6-Methyl-imidazo[2,1-b]thiazole-5-carboxylic acid {(RS)-2-cyclopropyl-2-[methyl-(2-methyl-5-phenyl-thiazole-4-carbonyl)-amino]ethyl}-amide] | 
13 |  |  | 0.028 µM | 0.017 µM | Cc1nc(C(=O)N(CCNC(=O)c2c(C)nc3sccn23)CC2CC2)c(-c2cccc(C#N)c2)s1 [Example 187, 6-Methyl-imidazo[2,1-b]thiazole-5-carboxylic acid (2-{[5-(3-cyano-phenyl)-2-methyl-thiazole-4-carbonyl]-cyclopropylmethyl-amino}-ethyl)-amide] | 
14 |  |  | 0.023 µM | 0.039 µM | Cc1ccc(-c2sc(Br)nc2C(=O)N(CCNC(=O)c2c(C)nc3sccn23)C2CC2)cc1 [Example 111, 6-Methyl-imidazo[2,1-b]thiazole-5-carboxylic acid {2-[(2-bromo-5-p-tolyl-thiazole-4-carbonyl)-cyclopropyl-amino]ethyl}-amide] | 
15 |  |  | 0.068 µM | 0.098 µM | COc1cccc(-c2sc(C)nc2C(=O)N(CCNC(=O)c2nn(C)c3ccccc23)C2CC2)c1 [Example 140, 1-Methyl-1H-indazole-3-carboxylic acid (2-{cyclopropyl-[5-(3-methoxy-phenyl)-2-methyl-thiazole-4-carbonyl]-amino}-ethyl)-amide] | 
16 | 0.033 µM | 0.037 µM |  |  | Cc1nc(C(=O)NC(CNC(=O)c2c(C)nc3sccn23)C2CC2)c(-c2ccccc2)s1 (racemic) [Example 49, 6-Methyl-imidazo[2,1-b]thiazole-5-carboxylic acid {(RS)-2-cyclopropyl-2-[(2-methyl-5-phenyl-thiazole-4-carbonyl)-amino]-ethyl}-amide] | 
17 | 0.05 µM | 0.027 µM |  |  | Cc1nc(C(=O)N(Cc2ccccc2)C(CNC(=O)c2c(C)nc3sccn23)Cc2ccccc2)c(-c2ccccc2)s1 (racemic) [Example 71, 6-Methyl-imidazo[2,1-b]thiazole-5-carboxylic acid {(RS)-2-[benzyl-(2-methyl-5-phenyl-thiazole-4-carbonyl)-amino]-3-phenyl-propyl}-amide] | 
18 |  |  | 0.01 µM | 0.01 µM | COc1cccc(-c2sc(Br)nc2C(=O)N(CCNC(=O)c2c(C)nc3sccn23)CC2CC2)c1 [Example 179, 6-Methyl-imidazo[2,1-b]thiazole-5-carboxylic acid (2-{[2-bromo-5-(3-methoxy-phenyl)-thiazole-4-carbonyl]-cyclopropylmethyl-amino}-ethyl)-amide] | 
19 |  |  | 0.012 µM | 0.057 µM | Cc1cccc(-c2sc(N)nc2C(=O)N(CCNC(=O)c2nn(C)c3ccccc23)CC2CC2)c1 [Example 195, 1-Methyl-1H-indazole-3-carboxylic acid {2-[(2-amino-5-m-tolyl-thiazole-4-carbonyl)-cyclopropylmethyl-amino]-ethyl}-amide] | 
